One substance from patent US20130089505A1, “SINGLE VIAL FORMULATION FOR MEDICAL GRADE CYANOACRYLATE” (priority 2007, published 2013) can be followed below.

This data set is described as follows: Viscosity of cyanoacrylate monomer, oligomer and formulation. The data set is classed as physicochemical. As to conditions: monomer free of 4-methoxyphenol and SO2. An excerpt:
In one embodiment, an alkyl cyanoacrylate monomer can be treated to form an alkyl cyanoacrylate oligomer with viscosity greater than the alkyl cyanoacrylate monomer. For example, an n-hexyl cyanoacrylate monomer can be treated to form an n-hexyl cyanoacrylate oligomer. Preferred oligomers result from photochemical treatment of an alkyl cyanoacrylate monomer, to produce a mixture that includes partially polymerized cyanoacrylate and that has a higher viscosity than the alkyl cyanoacrylate monomer from which it is formed. For example, the viscosity of the alkyl cyanoacrylate oligomer can advantageously be from about 10 centipoise to about 1000 centipoise and the viscosity of the alkyl cyanoacrylate monomer, from which the alkyl cyanoacrylate oligomer is formed, can be from about 2 centipoise to about 5 centipoise as measured by a rheometer. Typically, the oligomer will have a viscosity of from about 10 centipoise to about 50 centipoise.
The purified n-hexyl cyanoacrylate monomer from Example 1, containing 4-methoxyphenol, was treated with Aldrich HQ & MEHQ inhibitor remover, Sigma-Aldrich, Inc., St. Louis, Mo., USA (2005-2006 Catalog #306320), to remove the p-methoxyphenol, followed by bubbling argon through the n-hexyl cyanoacrylate monomer to remove SO2. The viscosity of the purified n-hexyl cyanoacrylate, free of 4-methoxyphenol and SO2, was ˜4 centipoise. […]

For n-hexyl cyanoacrylate, the viscosity is roughly 4 centipoise.
